How the values were obtained:
NCI/ADR-RES = test: Growth inhibition of human NCI/ADR-RES cells after 48 hrs by sulforhodamine B assay; type: functional
SK-OV-3 [1] = test: Cytotoxicity against human SKOV3 cells after 48 hrs by sulforhodamine B assay; type: cell-based; conditions: sk-ov-3, 48 h
OVCAR-5 = test: Cytotoxicity against human OVCAR5 cells after 48 hrs by sulforhodamine B assay; type: cell-based; conditions: ovcar-5, 48 h
T47D = test: Growth inhibition of human T47D cells after 48 hrs by sulforhodamine B assay; type: functional
COLO 205 = test: Growth inhibition of human COLO205 cells after 48 hrs by sulforhodamine B assay; type: functional; conditions: COLO 205, 48 h
SW-620 = test: Growth inhibition of human SW620 cells after 48 hrs by sulforhodamine B assay; type: functional; conditions: SW-620, 48 h
NCI-H226 = test: Growth inhibition of human NCI-H226 cells after 48 hrs by sulforhodamine B assay; type: functional; conditions: NCI-H226, 48 h
RPMI-8226 = test: Cytotoxicity against human RPMI8226 cells after 48 hrs by sulforhodamine B assay; type: cell-based; conditions: rpmi-8226, 48 h
PC-3 = test: Cytotoxicity against human PC3 cells after 48 hrs by sulforhodamine B assay; type: cell-based; conditions: pc-3, 48 h
UACC-62 = test: Growth inhibition of human UACC62 cells after 48 hrs by sulforhodamine B assay; type: functional; conditions: UACC-62, 48 h
NCI-H322M = test: Growth inhibition of human NCI-H322M cells after 48 hrs by sulforhodamine B assay; type: functional
[2] = tested on: T1, Receptor-type tyrosine-protein kinase FLT3 (Homo sapiens), P36888 [D835H]; test: Binding affinity to human FLT3 D835H mutant at 10 uM incubated for 1 hr by kinase binding assay relative to untreated control
T1 sequence (whole entry): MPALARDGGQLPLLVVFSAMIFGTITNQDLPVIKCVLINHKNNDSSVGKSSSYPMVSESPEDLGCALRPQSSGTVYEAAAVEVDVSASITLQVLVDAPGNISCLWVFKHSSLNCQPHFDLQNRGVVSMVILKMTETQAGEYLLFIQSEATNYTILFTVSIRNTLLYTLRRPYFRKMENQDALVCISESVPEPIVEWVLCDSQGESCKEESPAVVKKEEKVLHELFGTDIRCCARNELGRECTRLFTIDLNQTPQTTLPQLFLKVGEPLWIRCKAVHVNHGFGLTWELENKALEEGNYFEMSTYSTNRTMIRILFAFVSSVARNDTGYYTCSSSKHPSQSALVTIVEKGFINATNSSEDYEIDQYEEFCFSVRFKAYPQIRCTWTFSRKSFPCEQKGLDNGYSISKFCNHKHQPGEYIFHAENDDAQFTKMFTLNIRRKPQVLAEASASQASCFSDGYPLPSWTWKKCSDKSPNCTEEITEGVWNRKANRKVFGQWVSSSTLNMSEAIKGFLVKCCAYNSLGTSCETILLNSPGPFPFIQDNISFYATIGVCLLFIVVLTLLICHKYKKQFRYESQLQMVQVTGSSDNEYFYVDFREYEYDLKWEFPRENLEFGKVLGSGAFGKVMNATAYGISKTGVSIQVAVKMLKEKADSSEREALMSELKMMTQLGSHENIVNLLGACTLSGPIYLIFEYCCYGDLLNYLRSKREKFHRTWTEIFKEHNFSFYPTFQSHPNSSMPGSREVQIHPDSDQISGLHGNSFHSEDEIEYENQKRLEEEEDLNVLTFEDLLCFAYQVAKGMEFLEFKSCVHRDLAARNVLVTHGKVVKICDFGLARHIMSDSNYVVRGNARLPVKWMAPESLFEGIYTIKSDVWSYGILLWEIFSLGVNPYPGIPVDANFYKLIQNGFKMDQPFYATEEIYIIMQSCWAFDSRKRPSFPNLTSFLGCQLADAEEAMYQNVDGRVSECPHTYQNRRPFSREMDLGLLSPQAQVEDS

SK-MEL-5 = test: Cytotoxicity against human SK-MEL-5 cells after 48 hrs by sulforhodamine B assay; type: cell-based; conditions: sk-mel-5, 48 h
[3] = target: Receptor-type tyrosine-protein kinase FLT3 (Homo sapiens) (UniProt P36888); test: Binding affinity to human FLT3 at 10 uM incubated for 1 hr by kinase binding assay relative to untreated control
Hs-578T = test: Cytotoxicity against human Hs578T cells after 48 hrs by sulforhodamine B assay; type: cell-based
KM12 = test: Cytotoxicity against human KM12 cells after 48 hrs by sulforhodamine B assay; type: cell-based; conditions: km12, 48 h
[4] = tested on: Tyrosine-protein kinase ABL1 (Homo sapiens), P00519 [F317I]; test: Binding affinity to human phosphorylated ABL1 F317I mutant at 10 uM incubated for 1 hr by kinase binding assay relative to untreated control
HOP-62 [5] = test: Cytotoxicity against human HOP62 cells after 48 hrs by sulforhodamine B assay; type: cell-based; conditions: hop-62, 48 h
DU-145 = test: Growth inhibition of human DU145 cells after 48 hrs by sulforhodamine B assay; type: functional; conditions: DU-145, 48 h
MOLT-4 = test: Cytotoxicity against human MOLT4 cells after 48 hrs by sulforhodamine B assay; type: cell-based; conditions: molt-4, 48 h
HOP-62 [6] = test: Growth inhibition of human HOP62 cells after 48 hrs by sulforhodamine B assay; type: functional; conditions: HOP-62, 48 h
[7] = tested on: Receptor-type tyrosine-protein kinase FLT3 (Homo sapiens), P36888 [UNDEFINED MUTATION]; test: Binding affinity to human FLT3 ITD mutant at 10 uM incubated for 1 hr by kinase binding assay relative to untreated control
HCT-116 = test: Growth inhibition of human HCT116 cells after 48 hrs by sulforhodamine B assay; type: functional; conditions: HCT-116, 48 h
NCI-H23 = test: Cytotoxicity against human NCI-H23 cells after 48 hrs by sulforhodamine B assay; type: cell-based; conditions: nci-h23, 48 h
SK-OV-3 [8] = test: Growth inhibition of human SKOV3 cells after 48 hrs by sulforhodamine B assay; type: functional; conditions: SK-OV-3, 48 h
786-0 = test: Cytotoxicity against human 786-0 cells after 48 hrs by sulforhodamine B assay; type: cell-based; conditions: 786-0, 48 h
[9] = target: Casein kinase I isoform delta (Homo sapiens) (UniProt P48730); test: Inhibition of human CSNK1D using gamma-33P-ATP as substrate assessed as enzyme functional activity at 1 uM by scintillation counting relative to untreated control; set-up: scale not given: the % may be the effect or the level left
[10] = target: Cyclin-dependent kinase 8 (Homo sapiens) (UniProt P49336); test: Binding affinity to human CDK8 at 10 uM incubated for 1 hr by kinase binding assay relative to untreated control
[11] = target: Casein kinase I isoform epsilon (Homo sapiens) (UniProt P49674); test: Binding affinity to human CSNK1E at 10 uM incubated for 1 hr by kinase binding assay relative to untreated control
[12] = target: Casein kinase I isoform gamma-3 (Homo sapiens) (UniProt Q9Y6M4); test: Binding affinity to human CSNK1G3 at 10 uM incubated for 1 hr by kinase binding assay relative to untreated control
A549 = test: Growth inhibition of human A549 cells after 48 hrs by sulforhodamine B assay; type: functional; conditions: A549, 48 h

Chain of Tyrosine-protein kinase ABL1 (Homo sapiens), P00519 [F317I] (P00519 whole entry F317I): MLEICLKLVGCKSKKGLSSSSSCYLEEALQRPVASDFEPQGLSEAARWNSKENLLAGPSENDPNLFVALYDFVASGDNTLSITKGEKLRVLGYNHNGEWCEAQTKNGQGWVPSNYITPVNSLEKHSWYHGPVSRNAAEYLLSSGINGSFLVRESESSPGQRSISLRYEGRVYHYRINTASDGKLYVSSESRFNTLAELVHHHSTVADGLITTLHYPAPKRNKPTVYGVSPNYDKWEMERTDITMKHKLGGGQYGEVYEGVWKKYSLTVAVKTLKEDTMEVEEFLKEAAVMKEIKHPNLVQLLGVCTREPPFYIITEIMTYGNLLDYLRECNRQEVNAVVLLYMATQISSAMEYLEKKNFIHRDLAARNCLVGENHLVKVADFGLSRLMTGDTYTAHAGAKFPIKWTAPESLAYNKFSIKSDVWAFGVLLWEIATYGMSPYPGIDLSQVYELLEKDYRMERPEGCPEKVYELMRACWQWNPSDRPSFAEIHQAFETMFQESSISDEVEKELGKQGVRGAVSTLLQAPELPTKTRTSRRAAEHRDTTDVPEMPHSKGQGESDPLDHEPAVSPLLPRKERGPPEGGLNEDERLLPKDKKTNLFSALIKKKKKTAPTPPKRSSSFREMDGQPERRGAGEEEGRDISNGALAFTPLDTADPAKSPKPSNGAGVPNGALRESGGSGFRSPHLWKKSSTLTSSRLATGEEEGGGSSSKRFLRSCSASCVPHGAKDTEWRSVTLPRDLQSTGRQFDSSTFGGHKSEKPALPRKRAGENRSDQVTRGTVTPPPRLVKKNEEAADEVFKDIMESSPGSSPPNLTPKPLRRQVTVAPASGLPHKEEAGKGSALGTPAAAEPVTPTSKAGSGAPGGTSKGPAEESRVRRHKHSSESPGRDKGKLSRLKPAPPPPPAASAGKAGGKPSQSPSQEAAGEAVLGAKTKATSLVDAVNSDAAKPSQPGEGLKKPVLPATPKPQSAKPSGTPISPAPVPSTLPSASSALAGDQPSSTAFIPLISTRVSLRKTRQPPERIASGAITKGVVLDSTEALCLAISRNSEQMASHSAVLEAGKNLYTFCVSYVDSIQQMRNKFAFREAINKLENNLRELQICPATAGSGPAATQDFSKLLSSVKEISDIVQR
Chain of Casein kinase I isoform delta (Homo sapiens) (P48730 whole entry, looked up, canonical isoform): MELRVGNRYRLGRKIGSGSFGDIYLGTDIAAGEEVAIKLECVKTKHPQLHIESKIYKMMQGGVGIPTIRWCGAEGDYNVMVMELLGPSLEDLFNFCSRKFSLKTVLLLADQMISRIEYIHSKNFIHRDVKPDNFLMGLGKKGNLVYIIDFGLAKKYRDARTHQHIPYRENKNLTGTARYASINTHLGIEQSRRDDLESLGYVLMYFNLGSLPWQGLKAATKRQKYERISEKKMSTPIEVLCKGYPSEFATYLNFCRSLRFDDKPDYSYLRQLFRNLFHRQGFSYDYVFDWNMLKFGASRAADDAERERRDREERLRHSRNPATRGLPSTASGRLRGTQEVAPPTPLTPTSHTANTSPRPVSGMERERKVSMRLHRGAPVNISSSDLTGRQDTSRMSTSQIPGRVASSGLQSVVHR
Chain of Casein kinase I isoform gamma-3 (Homo sapiens) (Q9Y6M4 whole entry, looked up, canonical isoform): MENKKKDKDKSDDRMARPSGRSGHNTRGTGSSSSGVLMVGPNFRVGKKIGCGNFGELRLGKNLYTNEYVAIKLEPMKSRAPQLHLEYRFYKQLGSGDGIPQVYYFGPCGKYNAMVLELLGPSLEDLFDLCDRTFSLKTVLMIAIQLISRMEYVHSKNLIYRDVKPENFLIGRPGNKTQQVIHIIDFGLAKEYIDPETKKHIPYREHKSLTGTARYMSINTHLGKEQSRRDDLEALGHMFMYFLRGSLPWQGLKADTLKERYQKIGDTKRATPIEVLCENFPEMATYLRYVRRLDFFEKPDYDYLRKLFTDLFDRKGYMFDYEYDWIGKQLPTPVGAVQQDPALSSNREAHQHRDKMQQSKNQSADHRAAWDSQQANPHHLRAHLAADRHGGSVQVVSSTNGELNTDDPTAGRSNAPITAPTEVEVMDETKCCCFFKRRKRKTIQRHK
Chain of Cyclin-dependent kinase 8 (Homo sapiens) (P49336 whole entry, canonical isoform): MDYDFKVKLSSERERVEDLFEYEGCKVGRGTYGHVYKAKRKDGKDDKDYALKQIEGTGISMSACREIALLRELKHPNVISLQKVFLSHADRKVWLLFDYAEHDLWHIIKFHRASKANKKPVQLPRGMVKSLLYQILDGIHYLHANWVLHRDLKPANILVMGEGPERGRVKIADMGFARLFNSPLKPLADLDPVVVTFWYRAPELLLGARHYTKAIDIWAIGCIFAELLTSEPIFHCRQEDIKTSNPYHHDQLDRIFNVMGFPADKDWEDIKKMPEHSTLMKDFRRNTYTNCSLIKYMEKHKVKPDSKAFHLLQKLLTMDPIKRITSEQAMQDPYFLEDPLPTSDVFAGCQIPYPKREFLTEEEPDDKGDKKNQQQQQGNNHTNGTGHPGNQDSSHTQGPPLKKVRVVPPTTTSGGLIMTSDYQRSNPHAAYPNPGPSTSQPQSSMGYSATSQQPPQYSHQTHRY
Chain of Casein kinase I isoform epsilon (Homo sapiens) (P49674 whole entry, looked up, canonical isoform): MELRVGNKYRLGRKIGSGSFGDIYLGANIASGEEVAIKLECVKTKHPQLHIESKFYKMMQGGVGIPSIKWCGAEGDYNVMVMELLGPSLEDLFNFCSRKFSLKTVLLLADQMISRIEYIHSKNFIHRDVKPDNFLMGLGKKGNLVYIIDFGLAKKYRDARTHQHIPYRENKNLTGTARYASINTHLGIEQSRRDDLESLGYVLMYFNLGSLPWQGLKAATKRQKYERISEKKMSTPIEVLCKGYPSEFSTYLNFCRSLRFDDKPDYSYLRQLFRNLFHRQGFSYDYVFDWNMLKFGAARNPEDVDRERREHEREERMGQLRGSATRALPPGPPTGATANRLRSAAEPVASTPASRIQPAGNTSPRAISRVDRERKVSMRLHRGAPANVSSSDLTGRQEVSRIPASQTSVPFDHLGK

Row | SMILES | TGI (NCI/ADR-RES) | LC50 (SK-OV-3 [1]) | LC50 (OVCAR-5) | TGI (T47D) | TGI (COLO 205) | TGI (SW-620) | TGI (NCI-H226) | LC50 (RPMI-8226) | LC50 (PC-3) | TGI (UACC-62) | TGI (NCI-H322M) | Activity [2] | LC50 (SK-MEL-5) | Activity [3] | LC50 (Hs-578T) | LC50 (KM12) | Activity [4] | LC50 (HOP-62 [5]) | TGI (DU-145) | LC50 (MOLT-4) | further results
1 | O=C(c1cccc(Nc2ncnc3ccccc23)c1)N1CCN(c2ncc(Cc3ccccc3)cn2)CC1 | 8.51 µM | > 100 µM | > 100 µM | 7.59 µM | 2.75 µM | 4.27 µM | 2.09 µM | 3.89 µM | > 100 µM | 1.86 µM | 4.79 µM | > 50% | 3.47 µM | > 50% | > 100 µM | 6.61 µM | 20% | 7.41 µM | 6.46 µM | > 100 µM | TGI (HOP-62 [6]): 3.47 µM; Activity [7]: > 50%; TGI (HCT-116): 3.55 µM; LC50 (NCI-H23): 6.92 µM; TGI (SK-OV-3 [8]): 4.47 µM; LC50 (786-0): > 100 µM; Activity [9]: 74%; Activity [10]: > 50%; Activity [11]: 23%; Activity [12]: > 50%; TGI (A549): 3.09 µM
2 | CCc1cnc(N2CCN(C(=O)c3ccc(CNc4ncnc5ccccc45)cc3)CC2)nc1 | 21.5 µM | > 100 µM | > 100 µM | > 100 µM | 38.2 µM | 45.1 µM | > 100 µM | > 100 µM | > 100 µM | 80.9 µM | > 100 µM | > 50% | 20.8 µM | > 50% | > 100 µM | 53.8 µM | > 50% | > 100 µM | > 100 µM | > 100 µM | TGI (HOP-62 [6]): > 100 µM; Activity [7]: > 50%; TGI (HCT-116): 25 µM; LC50 (NCI-H23): > 100 µM; TGI (SK-OV-3 [8]): > 100 µM; LC50 (786-0): > 100 µM; Activity [9]: 87%; Activity [10]: > 50%; Activity [11]: 29%; Activity [12]: 24%; TGI (A549): > 100 µM
3 | c1ccc(Cc2cnc(N3CCN(c4ncnc5ccccc45)CC3)nc2)cc1 | 17.6 µM | > 100 µM | > 100 µM | 45.5 µM | > 100 µM | 27.7 µM | 48.4 µM | 97.3 µM | > 100 µM | 25.9 µM | > 100 µM | 46% | 37.7 µM | 8.4% | > 100 µM | 50.1 µM | 30% | > 100 µM | 30.7 µM | > 100 µM | TGI (HOP-62 [6]): 51.6 µM; Activity [7]: 49%; TGI (HCT-116): 13.2 µM; LC50 (NCI-H23): > 100 µM; TGI (SK-OV-3 [8]): > 100 µM; LC50 (786-0): > 100 µM; Activity [9]: 90%; Activity [10]: 3.4%; Activity [11]: 45%; Activity [12]: > 50%; TGI (A549): 35.7 µM
